# Results reported in patent US12509459B2, “Inhibitors of NLRP3 inflammasome” (BioAge Labs, Inc., priority 2024, dated 2025).
# Target: NLRP3 (Homo sapiens, UniProt Q96P20)
# Experiment: THP-1 cell-based NLRP3 activation assay
# Set-up: endogenous in cells; host or cells: THP-1 cells (PMA-differentiated, LPS-primed, nigericin-stimulated)
# Conditions: PMA-differentiated THP-1 cells, LPS 100 ng/mL then 10 μM nigericin
# Procedure: THP-1 cells are cultured in complete media (CM) until they reach logarithmic growth and achieve a viability >90%. CM is composed of RPMI-1640 (+Glutamax)/10% fetal bovine serum/55 μM β-mercaptoethanol/pen/strep. Cells are spun down and resuspended to 1,000,000 cells/mL in CM containing either 20 nM or 500 nM PMA. 150,000 cells (150 μL) are then added to each well of a 96-well TC plate and incubated for either 24 hr or 3 hr, respectively, in a standard cell culture incubator (37° C.; 5% CO2). After this incubation, the plate is tilted and media carefully removed. 200 μL of CM containing 100 ng/mL LPS is then added to the wells and the cells incubated an additional 3 hrs. The media is again removed and replaced with Opti-Mem medium containing pre-determined dilutions of test compounds in replicate wells. After a 30 min incubation, 10 μM nigericin (final concentration) in Opti-Mem medium with the corresponding concentration of compound is added to the wells for an additional 1 hr. Positive control wells contain 10 μM nigericin in Opti-Mem in the absence of test compound, while negative control wells contain Opti-Mem only. […] Once supernatants are removed, the relative viability of adherent cells in the 96-well TC plate are determined using a CellTiter-Glo® luminescent cell viability assay (Promega).
# Sequence of NLRP3 (Q96P20 whole entry): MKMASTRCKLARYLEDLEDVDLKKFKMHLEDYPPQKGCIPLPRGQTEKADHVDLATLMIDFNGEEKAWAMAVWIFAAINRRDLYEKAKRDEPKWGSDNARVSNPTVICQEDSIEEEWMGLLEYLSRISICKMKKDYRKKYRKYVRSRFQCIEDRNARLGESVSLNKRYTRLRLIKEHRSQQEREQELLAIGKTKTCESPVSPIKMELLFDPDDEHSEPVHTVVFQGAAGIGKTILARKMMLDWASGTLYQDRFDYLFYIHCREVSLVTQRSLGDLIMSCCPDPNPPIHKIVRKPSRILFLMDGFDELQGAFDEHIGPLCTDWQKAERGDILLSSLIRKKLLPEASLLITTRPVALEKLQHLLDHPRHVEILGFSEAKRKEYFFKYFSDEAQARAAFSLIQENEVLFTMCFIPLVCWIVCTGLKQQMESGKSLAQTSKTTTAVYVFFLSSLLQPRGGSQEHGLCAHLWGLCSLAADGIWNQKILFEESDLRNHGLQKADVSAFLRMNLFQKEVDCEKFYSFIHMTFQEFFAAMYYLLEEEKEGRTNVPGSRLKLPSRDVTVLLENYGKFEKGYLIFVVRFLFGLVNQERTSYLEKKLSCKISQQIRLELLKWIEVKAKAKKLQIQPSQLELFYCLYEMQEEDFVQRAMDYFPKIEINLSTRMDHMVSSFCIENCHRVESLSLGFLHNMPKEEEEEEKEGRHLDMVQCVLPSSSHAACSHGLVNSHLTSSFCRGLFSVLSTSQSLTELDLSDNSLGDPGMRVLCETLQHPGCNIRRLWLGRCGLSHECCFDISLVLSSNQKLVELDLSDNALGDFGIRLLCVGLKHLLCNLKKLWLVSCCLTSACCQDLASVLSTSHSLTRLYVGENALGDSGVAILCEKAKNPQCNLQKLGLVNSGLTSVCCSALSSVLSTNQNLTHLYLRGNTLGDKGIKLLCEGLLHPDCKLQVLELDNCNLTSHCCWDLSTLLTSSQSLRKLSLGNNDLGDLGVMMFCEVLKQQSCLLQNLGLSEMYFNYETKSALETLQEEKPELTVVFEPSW
row,SMILES,IC50
1,CCOc1cc(C(=O)N(C)[C@H](CCNCCF)c2cncc3cn[nH]c23)ccc1-c1cccc(F)c1 [Compound 063],< 100 nM
2,CCOc1cc(C(=O)N(C)[C@H](CCN(CCF)CCF)c2cncc3cn[nH]c23)ccc1-c1cccc(F)c1 [Compound 064],< 100 nM
3,CCOc1cc(C(=O)N(C)[C@H](c2cnc(C)c3cn[nH]c23)C2CN(C)C2)ccc1-c1cccc(F)c1 [Compound 065],< 100 nM
4,CCOc1cc(C(=O)N(C)[C@H](CCN(C)C)c2cnc(CO)c3cn[nH]c23)ccc1-c1cccc(Cl)c1 [Compound 068],< 100 nM
5,CCOc1cc(C(=O)N(C)[C@H](CCN2CC(F)C2)c2cncc3cn[nH]c23)ccc1-c1cccc(F)c1 [Compound 070],< 100 nM
6,CCOc1cc(C(=O)N(C)[C@H](CCN(C)C)c2cnc(C)c3cn[nH]c23)ccc1-c1ccccc1 [Compound 074],< 100 nM
7,CCOc1cc(C(=O)N(C)[C@H](CCN(C)C)c2cnc(C)c3cn[nH]c23)ccc1-c1cccc(Cl)c1 [Compound 076],< 100 nM
8,CCOc1cc(C(=O)N(C)[C@H](CCN2CCC2)c2cncc3cn[nH]c23)ccc1-c1cccc(F)c1 [Compound 077],< 100 nM
9,CCOc1cc(C(=O)N(C)[C@@H](c2cnc(C)c3cn[nH]c23)C2CNC2)ccc1-c1cccc(F)c1 [Compound 078],< 100 nM
10,C=CC(=O)NCC[C@H](c1cncc2cn[nH]c12)N(C)C(=O)c1ccc(-c2cccc(F)c2)c(OCC)c1 [Compound 080],< 100 nM
11,CCOc1cc(C(=O)N(C)[C@H](CCN2C[C@@H](F)[C@@H](F)C2)c2cncc3cn[nH]c23)ccc1-c1cccc(F)c1 [Compound 086],< 100 nM
12,CCOc1cc(C(=O)N(C)[C@H](CCN(C)C)c2cncc3cn[nH]c23)ccc1-c1cc(Cl)cc(Cl)c1 [Compound 090],< 100 nM
13,CCOc1cc(C(=O)N(C)[C@H](CCN(C)C)c2cncc3cn[nH]c23)ccc1-c1cccc(C)c1 [Compound 091],< 100 nM
14,CCOc1cc(C(=O)N(C)[C@H](CCN2C[C@@H](F)[C@H](F)C2)c2cncc3cn[nH]c23)ccc1-c1cccc(F)c1 [Compound 093],< 100 nM
15,CCOc1cc(C(=O)N(C)[C@H](CCN2CCC(F)(F)C2)c2cncc3cn[nH]c23)ccc1-c1cccc(F)c1 [Compound 100],< 100 nM
16,CCOc1cc(C(=O)N(C)[C@H](CCN(CC)CC)c2cncc3cn[nH]c23)ccc1-c1cccc(F)c1 [Compound 103],< 100 nM
17,CCOc1cc(C(=O)N(C)[C@H](CCN2CCCC2)c2cncc3cn[nH]c23)ccc1-c1cccc(F)c1 [Compound 104],< 100 nM
18,CCOc1cc(C(=O)N(CCN2C[C@H](F)C[C@H](F)C2)Cc2cncc3cn[nH]c23)ccc1-c1cccc(F)c1 [Compound 106],< 100 nM
19,CCOc1cc(C(=O)N(CCN2CCC(F)C2)Cc2cncc3cn[nH]c23)ccc1-c1cccc(F)c1 (centres unmarked) [Compound 109],< 100 nM
20,CCOc1cc(C(=O)N(CCN2CCCCC2)Cc2cncc3cn[nH]c23)ccc1-c1ccccc1 [Compound 112],< 100 nM
21,CCOc1cc(C(=O)N(CCNC)Cc2cncc3cn[nH]c23)ccc1-c1cccc(F)c1 [Compound 116],< 100 nM
22,CCOc1cc(C(=O)N(CCN2CCCCC2)Cc2cncc3cn[nH]c23)ccc1-c1cccc(F)c1 [Compound 117],< 100 nM
23,CCOc1cc(C(=O)N(CCN2CCCC2)Cc2cncc3cn[nH]c23)ccc1-c1cccc(F)c1 [Compound 119],< 100 nM
24,CCOc1cc(C(=O)N(C)[C@@H](CN(C)C)c2cncc3cn[nH]c23)ccc1-c1cccc(F)c1 [Compound 122],500 to 1000 nM
25,CCOc1cc(C(=O)N(C)[C@H](CN2CCC2)c2cncc3cn[nH]c23)ccc1-c1cccc(F)c1 [Compound 123],500 to 1000 nM
26,CCOc1cc(C(=O)N(C)[C@H](CN(C)C)c2cncc3cn[nH]c23)ccc1-c1cccc(Cl)c1 [Compound 125],< 100 nM
27,CCOc1cc(C(=O)N(C)[C@@H](CN(C)C)c2cncc3cn[nH]c23)ccc1-c1cccc(Cl)c1 [Compound 126],< 100 nM
28,CCOc1cc(C(=O)N(C)[C@@H](CN2CCCC2)c2cncc3cn[nH]c23)ccc1-c1cccc(F)c1 [Compound 130],< 100 nM
29,CCOc1cc(C(=O)N(C)[C@H](c2cncc3cn[nH]c23)C2CN(C(C)C)C2)ccc1-c1ccccc1 [Compound 132],1000 to 15000 nM

# Continued, values first:
row,IC50,SMILES
1,< 100 nM,CCOc1cc(C(=O)N(C)C(CCN(C)CC)c2cncc3cn[nH]c23)ccc1-c1cccc(F)c1 (centres unmarked) [Compound 066]
2,< 100 nM,CCOc1cc(C(=O)N(C)[C@H](CCN(C)CCF)c2cncc3cn[nH]c23)ccc1-c1cccc(Cl)c1 [Compound 067]
3,< 100 nM,CCOc1cc(C(=O)N(C)[C@@H](c2cnc(C)c3cn[nH]c23)C2CN(C)C2)ccc1-c1cccc(F)c1 [Compound 071]
4,< 100 nM,CCOc1cc(C(=O)N(C)[C@H](c2cnc(C)c3cn[nH]c23)C2CNC2)ccc1-c1cccc(F)c1 [Compound 072]
5,< 100 nM,CN(C)CC[C@H](c1cncc2cn[nH]c12)N(C)C(=O)c1ccc(-c2ccccc2)c(OC2CC2)c1 [Compound 073]
6,< 100 nM,CCOc1cc(C(=O)N(C)[C@H](CCN(C)C)c2cnc(C)c3cn[nH]c23)ccc1-c1cccc(F)c1 [Compound 075]
7,< 100 nM,CCOc1cc(C(=O)N(C)[C@@H](c2cncc3cn[nH]c23)C2CN(C)C2)ccc1-c1cccc(F)c1 [Compound 079]
8,< 100 nM,CCOc1cc(C(=O)N(C)[C@@H](c2cncc3cn[nH]c23)[C@@H]2CCN(C)C2)ccc1-c1cccc(F)c1 [Compound 081]
9,< 100 nM,CCOc1cc(C(=O)N(C)[C@@H](c2cncc3cn[nH]c23)[C@H]2CCN(C)C2)ccc1-c1cccc(F)c1 [Compound 082]
10,< 100 nM,CCOc1cc(C(=O)N(C)[C@H](CCN(C)C)c2cnc(C)c3cn[nH]c23)ccc1-c1cc(Cl)cc(Cl)c1 [Compound 083]
11,< 100 nM,CCOc1cc(C(=O)N(C)[C@H](CCN(C)C)c2cnc(C)c3cn[nH]c23)ccc1-c1cccc(C)c1 [Compound 084]
12,100 to 500 nM,CCOc1cc(C(=O)N(C)[C@H](c2cncc3cn[nH]c23)C2CNC2)ccc1-c1cccc(F)c1 [Compound 092]
13,< 100 nM,CCOc1cc(C(=O)N(C)[C@H](CCN(C)CC(F)F)c2cncc3cn[nH]c23)ccc1-c1cccc(F)c1 [Compound 094]
14,< 100 nM,CCOc1cc(C(=O)N(C)[C@H](CCN(C)CCF)c2cncc3cn[nH]c23)ccc1-c1cccc(F)c1 [Compound 095]
15,< 100 nM,CCOc1cc(C(=O)N(C)[C@@H](c2cncc3cn[nH]c23)C2CNC2)ccc1-c1cccc(F)c1 [Compound 097]
16,< 100 nM,CCOc1cc(C(=O)N(C)[C@H](CCN(C)C)c2cncc3cn[nH]c23)ccc1-c1cccc(Cl)c1 [Compound 098]
17,< 100 nM,CCOc1cc(C(=O)N(C)[C@H](CCN(C)C)c2cnc(CO)c3cn[nH]c23)ccc1-c1cccc(F)c1 [Compound 099]

row,IC50,SMILES
1,< 100 nM,CCOc1cc(C(=O)N(C)[C@H](CCN2CC(F)(F)C2)c2cncc3cn[nH]c23)ccc1-c1cccc(F)c1 [Compound 101]
2,< 100 nM,CN(C)CC[C@H](c1cncc2cn[nH]c12)N(C)C(=O)c1ccc(-c2cccc(Cl)c2)c(OC2CC2)c1 [Compound 102]
3,< 100 nM,CCOc1cc(C(=O)N(CCN2C[C@@H](F)[C@H](F)C2)Cc2cncc3cn[nH]c23)ccc1-c1cccc(F)c1 [Compound 107]
4,< 100 nM,CCOc1cc(C(=O)N(CCN2C[C@@H](F)[C@@H](F)C2)Cc2cncc3cn[nH]c23)ccc1-c1cccc(F)c1 [Compound 108]
5,< 100 nM,CCOc1cc(C(=O)N(CCN2CCC(F)CC2)Cc2cncc3cn[nH]c23)ccc1-c1cccc(F)c1 [Compound 110]
6,< 100 nM,CCOc1cc(C(=O)N(CCN2C[C@@H](F)C[C@H](F)C2)Cc2cncc3cn[nH]c23)ccc1-c1cccc(F)c1 [Compound 111]
7,< 100 nM,CCOc1cc(C(=O)N(CCN2CCCC(F)(F)C2)Cc2cncc3cn[nH]c23)ccc1-c1cccc(F)c1 [Compound 113]
8,< 100 nM,CCOc1cc(C(=O)N(CCN2CCCC(F)C2)Cc2cncc3cn[nH]c23)ccc1-c1cccc(F)c1 (centres unmarked) [Compound 114]
9,< 100 nM,CCOc1cc(C(=O)N(CCN2CCC(F)(F)C2)Cc2cncc3cn[nH]c23)ccc1-c1cccc(F)c1 [Compound 115]
10,100 to 500 nM,CCOc1cc(CN(CCN2CCOCC2)Cc2cncc3cn[nH]c23)ccc1-c1cccc(F)c1 [Compound 118]
11,< 100 nM,CCOc1cc(CN(CCN(CC)CC)Cc2cncc3cn[nH]c23)ccc1-c1cccc(F)c1 [Compound 120]
12,< 100 nM,CCOc1cc(C(=O)N(C)[C@H](CN(C)C)c2cncc3cn[nH]c23)ccc1-c1cccc(F)c1 [Compound 121]
13,< 100 nM,CCOc1cc(C(=O)N(C)[C@H](CN(CC)CC)c2cncc3cn[nH]c23)ccc1-c1cccc(F)c1 [Compound 127]
14,< 100 nM,CCOc1cc(C(=O)N(C)[C@@H](CN(CC)CC)c2cncc3cn[nH]c23)ccc1-c1cccc(F)c1 [Compound 128]
15,500 to 1000 nM,CCOc1cc(C(=O)N(C)[C@H](CN2CCCC2)c2cncc3cn[nH]c23)ccc1-c1cccc(F)c1 [Compound 129]
16,< 100 nM,CCOc1cc(C(=O)N(C)[C@H](c2cncc3cn[nH]c23)C2CN(CC)C2)ccc1-c1cccc(Cl)c1 [Compound 131]
